Test results: ChEMBL document CHEMBL1201862, “PubChem BioAssay data set” (2004)
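Cells were grown in 96-well plates and exposed to each compound for 48 hours at five concentrations; endpoints were interpolated linearly between bracketing concentrations, or set to the highest concentration if not reached. Here, GI50 denotes the concentration required for 50% inhibition of growth.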 Active and inactive are the calls of the source. Cut-off read from the data, not from the text of the source: active = GI50 up to about 1.1 µM and inactive = higher.

Assays:
Test in all cases: NCI-60 cell line screen, 48 h
[1] = system: A498
[2] = system: A549
[3] = system: CAKI-1
[4] = system: HCC 2998
[5] = system: HL-60
[6] = system: HOP-62
[7] = system: M14
[8] = system: NCI-H23
[9] = system: RPMI-8226
[10] = system: RXF 393
[11] = system: SF-268
[12] = system: SF-539
[13] = system: SK-MEL-28
[14] = system: SK-MEL-5
[15] = system: SNB-19
[16] = system: SW-620
[17] = system: UACC-62
[18] = system: DU-145

Measured: GI50

Cn1cc2c(n1)c(N/N=C/c1ccccc1)nn1nnnc21
inactive: [1] > 100 µM | [2] > 100 µM | [3] > 100 µM | [4] > 100 µM | [5] > 100 µM | [6] > 100 µM | [7] > 100 µM | [8] > 100 µM | [9] > 100 µM | [10] > 100 µM | [11] > 100 µM | [12] > 100 µM | [13] > 100 µM | [14] > 100 µM | [15] > 100 µM | [16] > 100 µM | [17] > 100 µM

N=C(N)N/N=C(/c1nc2ccc([N+](=O)[O-])cc2[nH]c1=O)C(O)c1ccc([N+](=O)[O-])cc1 (configuration not stated)
inactive: [2] 60.8 µM | [3] 28.4 µM | [4] 28.5 µM | [5] > 100 µM | [6] 37.8 µM | [7] 79.3 µM | [8] > 100 µM | [9] > 100 µM | [10] > 100 µM | [11] > 100 µM | [12] 31.3 µM | [13] 78.5 µM | [14] 37.5 µM | [15] > 100 µM | [16] > 100 µM | [17] 15.7 µM

C/C(=N/NC(N)=S)C(CN1CCOCC1)C(C1=C(O)c2ccccc2OC1)c1ccccc1 (configuration not stated)
inactive: [1] > 100 µM | [2] > 100 µM | [3] > 100 µM | [18] > 100 µM | [4] > 100 µM | [5] 21 µM | [7] > 100 µM | [8] > 100 µM | [9] 90.2 µM | [10] > 100 µM | [11] 41.8 µM | [12] > 100 µM | [14] > 100 µM | [15] > 100 µM | [16] > 100 µM | [17] > 100 µM

COc1ccc(NCC#N)cc1
inactive: [1] > 100 µM | [2] > 100 µM | [4] > 100 µM | [5] 52.8 µM | [7] > 100 µM | [8] > 100 µM | [9] > 100 µM | [10] > 100 µM | [11] > 100 µM | [12] > 100 µM | [13] > 100 µM | [14] > 100 µM | [15] > 100 µM | [16] > 100 µM | [17] 83.4 µM

O=[N+]([O-])c1ccc(Cc2nc3ccccc3s2)cc1
inactive: [1] > 100 µM | [2] > 100 µM | [3] > 100 µM | [4] > 100 µM | [5] 63.4 µM | [6] > 100 µM | [7] 99.8 µM | [8] > 100 µM | [9] 49.4 µM | [10] > 100 µM | [11] 74.1 µM | [12] 26.8 µM | [13] > 100 µM | [14] 87.3 µM | [15] > 100 µM | [16] 59.3 µM | [17] 68.1 µM

COC(=O)NN=C1C(C)(C)C(=O)C1(C)C
inactive: [1] > 100 µM | [2] > 100 µM | [4] > 100 µM | [5] > 100 µM | [6] > 100 µM | [7] > 100 µM | [8] > 100 µM | [9] > 100 µM | [10] > 100 µM | [11] > 100 µM | [12] > 100 µM | [13] > 100 µM | [14] > 100 µM | [16] > 100 µM | [17] > 100 µM

O=C1C2Nc3ccccc3SC2C(=O)N1c1ccccc1C(F)(F)F (configuration not stated)
inactive: [2] 20.2 µM | [3] 24.9 µM | [4] 16.7 µM | [5] 5.19 µM | [6] 25.4 µM | [7] 16 µM | [8] 24 µM | [9] 29 µM | [10] 7.45 µM | [11] 41.1 µM | [12] 17.8 µM | [13] 51.9 µM | [14] 12 µM | [15] 18.1 µM | [16] 21.4 µM | [17] 19 µM

CC(=O)OC1[C@H]2c3cc4c(cc3CN3CCC(C[C@@H]1OC(C)=O)C23)OCO4 (some centres not stated)
inactive: [2] > 75 µM | [4] > 75 µM | [5] > 75 µM | [6] > 75 µM | [7] > 75 µM | [8] > 75 µM | [9] > 75 µM | [10] > 75 µM | [11] > 75 µM | [12] > 75 µM | [13] > 75 µM | [15] > 75 µM | [16] > 75 µM | [17] > 75 µM

COc1cccc(NC(=O)CC(=O)N2NC(c3ccccc3)C(/N=N/c3cccc(C(=O)O)c3)C2=O)c1 (configuration not stated)
inactive: [1] > 100 µM | [2] > 100 µM | [3] 89.5 µM | [4] > 100 µM | [6] > 100 µM | [7] > 100 µM | [8] > 100 µM | [9] 70 µM | [10] 49.5 µM | [11] > 100 µM | [12] > 100 µM | [13] > 100 µM | [14] > 100 µM | [15] 28.1 µM | [16] > 100 µM | [17] 30.5 µM

Fc1cccc(F)c1C1SCc2nc3ccccc3n21 (configuration not stated) [THIAZOLOBENZIMIDAZOLE]
inactive: [1] > 100 µM | [2] > 100 µM | [3] > 100 µM | [4] > 100 µM | [5] 25.4 µM | [6] > 100 µM | [7] > 100 µM | [8] 45.5 µM | [9] 35.2 µM | [10] > 100 µM | [11] > 100 µM | [12] > 100 µM | [14] 31.5 µM | [15] > 100 µM | [16] > 100 µM | [17] 47 µM

O=c1c2ccccc2nc(-c2ccccc2)n1NC(=S)Nc1cccc(Cl)c1
inactive: [1] > 100 µM | [2] > 100 µM | [3] > 100 µM | [5] > 100 µM | [6] 60.3 µM | [7] > 100 µM | [8] > 100 µM | [9] > 100 µM | [10] 27.2 µM | [11] 43.7 µM | [12] 79.1 µM | [13] > 100 µM | [14] > 100 µM | [16] > 100 µM | [17] 75 µM

O=C(CSc1nnc(Cc2ccccc2)o1)Nc1ccc([N+](=O)[O-])cc1
inactive: [1] > 100 µM | [2] 59.4 µM | [4] > 100 µM | [5] 14.1 µM | [6] > 100 µM | [7] > 100 µM | [8] 89.7 µM | [9] > 100 µM | [10] > 100 µM | [11] > 100 µM | [12] > 100 µM | [13] > 100 µM | [14] > 100 µM | [17] > 100 µM
